{"source": "the supplement of paper PMC10307832", "assay_in_all_cases": "relative viability (nuclei count vs DMSO), 5 days (fraction); higher = more cells survive", "key": {"[1]": {"tested_on": "NCI-H322M", "in_short": "(§1)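 Lung cancer cell lines were pin-tool dosed in 1536-well plates on the day after seeding, with either a lone drug or a fixed anchor-drug dose plus five library-drug doses (not always all listed) in √10 steps. Nuclei were counted on 4× images after 5 days. Relative viability is the ratio of treated-well to vehicle-well nuclei counts, with each value a median of duplicate plates.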"}, "[2]": {"tested_on": "NCI-H1793", "in_short": "as §1"}, "[3]": {"tested_on": "UMC-11", "in_short": "as §1"}, "[4]": {"tested_on": "EPLC-272H", "in_short": "as §1"}, "[5]": {"tested_on": "201T", "in_short": "as §1"}, "[6]": {"tested_on": "NCI-H1734", "in_short": "as §1"}, "[7]": {"tested_on": "NCI-H2023", "in_short": "as §1"}, "[8]": {"tested_on": "NCI-H441", "in_short": "as §1"}, "[9]": {"tested_on": "NCI-H2405", "in_short": "as §1"}, "[10]": {"tested_on": "NCI-H3122", "in_short": "as §1"}, "[11]": {"tested_on": "PC-14", "in_short": "as §1"}, "[12]": {"tested_on": "COR-L23", "in_short": "as §1"}, "[13]": {"tested_on": "HCC-15", "in_short": "as §1"}, "[14]": {"tested_on": "NCI-H2170", "in_short": "as §1"}, "[15]": {"tested_on": "NCI-H2347", "in_short": "as §1"}, "[16]": {"tested_on": "NCI-H647", "in_short": "as §1"}, "[17]": {"tested_on": "NCI-H1650", "in_short": "as §1"}, "[18]": {"tested_on": "NCI-H520", "in_short": "as §1"}, "[19]": {"tested_on": "H3255", "in_short": "as §1"}, "[20]": {"tested_on": "LOU-NH91", "in_short": "as §1"}}}
{"smiles": "Cc1sc2c(c1C)C(c1ccc(Cl)cc1)=N[C@@H](CC(=O)OC(C)(C)C)c1nnc(C)n1-2", "note": "[JQ1] + CC1(C)CCC(c2ccc(Cl)cc2)=C(CN2CCN(c3ccc(C(=O)NS(=O)(=O)c4ccc(N[C@H](CCN5CCOCC5)CSc5ccccc5)c(S(=O)(=O)C(F)(F)F)c4)cc3)CC2)C1 [Navitoclax] (partner 0.5 µM)", "values": [{"measurement": "relative viability", "setting": "[1]; first compound 0.04 µM", "value": 1.09}, {"measurement": "relative viability", "setting": "[1]; first compound 0.1265 µM", "value": 1.11}, {"measurement": "relative viability", "setting": "[1]; first compound 0.4 µM", "value": 1.1}, {"measurement": "relative viability", "setting": "[1]; first compound 1.265 µM", "value": 0.692}, {"measurement": "relative viability", "setting": "[1]; first compound 4 µM", "value": 0.608}, {"measurement": "relative viability", "setting": "[2]; first compound 0.04 µM", "value": 0.408}, {"measurement": "relative viability", "setting": "[2]; first compound 0.1265 µM", "value": 0.345}, {"measurement": "relative viability", "setting": "[2]; first compound 0.4 µM", "value": 0.515}, {"measurement": "relative viability", "setting": "[2]; first compound 1.265 µM", "value": 0.444}, {"measurement": "relative viability", "setting": "[2]; first compound 4 µM", "value": 0.377}, {"measurement": "relative viability", "setting": "[3]; first compound 0.04 µM", "value": 0.266}, {"measurement": "relative viability", "setting": "[3]; first compound 0.1265 µM", "value": 0.292}, {"measurement": "relative viability", "setting": "[3]; first compound 0.4 µM", "value": 0.205}, {"measurement": "relative viability", "setting": "[3]; first compound 1.265 µM", "value": 0.134}, {"measurement": "relative viability", "setting": "[3]; first compound 4 µM", "value": 0.142}, {"measurement": "relative viability", "setting": "[4]; first compound 0.04 µM", "value": 1.14}, {"measurement": "relative viability", "setting": "[4]; first compound 0.1265 µM", "value": 0.958}, {"measurement": "relative viability", "setting": "[4]; first compound 0.4 µM", "value": 1.06}, {"measurement": "relative viability", "setting": "[4]; first compound 1.265 µM", "value": 0.462}, {"measurement": "relative viability", "setting": "[4]; first compound 4 µM", "value": 0.321}, {"measurement": "relative viability", "setting": "[5]; first compound 0.04 µM", "value": 1.23}, {"measurement": "relative viability", "setting": "[5]; first compound 0.1265 µM", "value": 0.977}, {"measurement": "relative viability", "setting": "[5]; first compound 0.4 µM", "value": 1.15}, {"measurement": "relative viability", "setting": "[5]; first compound 1.265 µM", "value": 0.842}, {"measurement": "relative viability", "setting": "[5]; first compound 4 µM", "value": 0.618}, {"measurement": "relative viability", "setting": "[6]; first compound 0.04 µM", "value": 0.849}, {"measurement": "relative viability", "setting": "[6]; first compound 0.1265 µM", "value": 0.825}, {"measurement": "relative viability", "setting": "[6]; first compound 0.4 µM", "value": 0.83}, {"measurement": "relative viability", "setting": "[6]; first compound 1.265 µM", "value": 0.407}, {"measurement": "relative viability", "setting": "[6]; first compound 4 µM", "value": 0.233}, {"measurement": "relative viability", "setting": "[7]; first compound 0.04 µM", "value": 0.98}, {"measurement": "relative viability", "setting": "[7]; first compound 0.1265 µM", "value": 0.915}, {"measurement": "relative viability", "setting": "[7]; first compound 0.4 µM", "value": 0.846}, {"measurement": "relative viability", "setting": "[7]; first compound 1.265 µM", "value": 0.334}, {"measurement": "relative viability", "setting": "[7]; first compound 4 µM", "value": 0.369}, {"measurement": "relative viability", "setting": "[8]; first compound 0.04 µM", "value": 0.834}, {"measurement": "relative viability", "setting": "[8]; first compound 0.1265 µM", "value": 0.684}, {"measurement": "relative viability", "setting": "[8]; first compound 0.4 µM", "value": 0.54}, {"measurement": "relative viability", "setting": "[8]; first compound 1.265 µM", "value": 0.528}, {"measurement": "relative viability", "setting": "[8]; first compound 4 µM", "value": 0.408}, {"measurement": "relative viability", "setting": "[9]; first compound 0.04 µM", "value": 0.886}, {"measurement": "relative viability", "setting": "[9]; first compound 0.4 µM", "value": 0.491}, {"measurement": "relative viability", "setting": "[9]; first compound 1.265 µM", "value": 0.136}, {"measurement": "relative viability", "setting": "[9]; first compound 4 µM", "value": 0.117}, {"measurement": "relative viability", "setting": "[10]; first compound 0.04 µM", "value": 1.01}, {"measurement": "relative viability", "setting": "[10]; first compound 0.1265 µM", "value": 1.01}, {"measurement": "relative viability", "setting": "[10]; first compound 0.4 µM", "value": 1.07}, {"measurement": "relative viability", "setting": "[10]; first compound 1.265 µM", "value": 0.552}, {"measurement": "relative viability", "setting": "[10]; first compound 4 µM", "value": 0.511}, {"measurement": "relative viability", "setting": "[11]; first compound 0.04 µM", "value": 0.944}, {"measurement": "relative viability", "setting": "[11]; first compound 0.1265 µM", "value": 0.957}, {"measurement": "relative viability", "setting": "[11]; first compound 0.4 µM", "value": 0.937}, {"measurement": "relative viability", "setting": "[11]; first compound 1.265 µM", "value": 0.672}, {"measurement": "relative viability", "setting": "[11]; first compound 4 µM", "value": 0.303}, {"measurement": "relative viability", "setting": "[12]; first compound 0.04 µM", "value": 1.02}, {"measurement": "relative viability", "setting": "[12]; first compound 0.1265 µM", "value": 0.763}, {"measurement": "relative viability", "setting": "[12]; first compound 0.4 µM", "value": 0.858}, {"measurement": "relative viability", "setting": "[12]; first compound 1.265 µM", "value": 0.357}, {"measurement": "relative viability", "setting": "[12]; first compound 4 µM", "value": 0.155}, {"measurement": "relative viability", "setting": "[13]; first compound 0.04 µM", "value": 0.692}, {"measurement": "relative viability", "setting": "[13]; first compound 0.4 µM", "value": 0.532}, {"measurement": "relative viability", "setting": "[13]; first compound 1.265 µM", "value": 0.331}, {"measurement": "relative viability", "setting": "[13]; first compound 4 µM", "value": 0.299}, {"measurement": "relative viability", "setting": "[14]; first compound 0.04 µM", "value": 0.652}, {"measurement": "relative viability", "setting": "[14]; first compound 0.1265 µM", "value": 0.641}, {"measurement": "relative viability", "setting": "[14]; first compound 0.4 µM", "value": 0.452}, {"measurement": "relative viability", "setting": "[14]; first compound 1.265 µM", "value": 0.279}, {"measurement": "relative viability", "setting": "[14]; first compound 4 µM", "value": 0.285}, {"measurement": "relative viability", "setting": "[15]; first compound 0.04 µM", "value": 0.782}, {"measurement": "relative viability", "setting": "[15]; first compound 0.1265 µM", "value": 0.691}, {"measurement": "relative viability", "setting": "[15]; first compound 0.4 µM", "value": 0.571}, {"measurement": "relative viability", "setting": "[15]; first compound 1.265 µM", "value": 0.316}, {"measurement": "relative viability", "setting": "[15]; first compound 4 µM", "value": 0.286}, {"measurement": "relative viability", "setting": "[16]; first compound 0.04 µM", "value": 1.1}, {"measurement": "relative viability", "setting": "[16]; first compound 0.1265 µM", "value": 0.709}, {"measurement": "relative viability", "setting": "[16]; first compound 0.4 µM", "value": 0.498}, {"measurement": "relative viability", "setting": "[16]; first compound 1.265 µM", "value": 0.141}, {"measurement": "relative viability", "setting": "[16]; first compound 4 µM", "value": 0.0972}, {"measurement": "relative viability", "setting": "[17]; first compound 0.04 µM", "value": 1.09}, {"measurement": "relative viability", "setting": "[17]; first compound 0.1265 µM", "value": 0.998}, {"measurement": "relative viability", "setting": "[17]; first compound 0.4 µM", "value": 0.655}, {"measurement": "relative viability", "setting": "[17]; first compound 1.265 µM", "value": 0.24}, {"measurement": "relative viability", "setting": "[17]; first compound 4 µM", "value": 0.169}, {"measurement": "relative viability", "setting": "[18]; first compound 0.04 µM", "value": 1.1}, {"measurement": "relative viability", "setting": "[18]; first compound 0.1265 µM", "value": 1.19}, {"measurement": "relative viability", "setting": "[18]; first compound 0.4 µM", "value": 0.905}, {"measurement": "relative viability", "setting": "[18]; first compound 1.265 µM", "value": 0.404}, {"measurement": "relative viability", "setting": "[18]; first compound 4 µM", "value": 0.297}, {"measurement": "relative viability", "setting": "[19]; first compound 0.04 µM", "value": 0.495}, {"measurement": "relative viability", "setting": "[19]; first compound 0.1265 µM", "value": 0.441}, {"measurement": "relative viability", "setting": "[19]; first compound 0.4 µM", "value": 0.566}, {"measurement": "relative viability", "setting": "[19]; first compound 1.265 µM", "value": 0.268}, {"measurement": "relative viability", "setting": "[19]; first compound 4 µM", "value": 0.258}, {"measurement": "relative viability", "setting": "[20]; first compound 0.04 µM", "value": 0.637}, {"measurement": "relative viability", "setting": "[20]; first compound 0.1265 µM", "value": 0.606}, {"measurement": "relative viability", "setting": "[20]; first compound 0.4 µM", "value": 0.413}, {"measurement": "relative viability", "setting": "[20]; first compound 1.265 µM", "value": 0.411}, {"measurement": "relative viability", "setting": "[20]; first compound 4 µM", "value": 0.429}]}
